{"source": "patent US20110065749A1", "about": "“METHOD AND PHARMACEUTICAL COMPOSITION FOR TREATMENT OF MENTAL DISORDERS” (ACTIVE CO. LTD., priority 2008, published 2011)", "assay_type_in_all_cases": "in vivo, human", "key": {"[1]": {"test_system": "Alcoholism", "test": "Case 6: alcoholism patient", "settings": "before Cephadol", "text": "Case 6: Alcoholism Patient was a office worker, who was drinking 1 to 2 liters of beer and 3 to 5 glasses of distilled spirit or whisky with water every day. They were drinking alcohol in daytime on Sundays, and suffering from a complication of liver dysfunction."}, "[2]": {"test_system": "manic state of bipolar I disorder", "test": "Case 3: manic-depressive illness patient", "settings": "1,200 mg, before Cephadol", "protocol": "Case 3: Manic-Depressive Illness Patient was a person, who had continuously been in a manic state of bipolar I disorder for over one month. An antiepileptic drug, or 1,200 mg of Limas®, was ineffective. Antipsychotic drugs were not usable due to significant side effects. […] When they discontinued the administration of Cephadol®, the manic state appeared after 5 days."}, "[3]": {"test_system": "Fibromyalgia", "test": "Case 18: fibromyalgia (4) patient", "settings": "before Cephadol", "text": "Case 18: Fibromyalgia (4)\nA person (housewife) is a patient with depression, having received regular medical treatment since seven years ago. […] However, a diagnosis with autoimmune disease or inflammatory disease was negative from their blood test. Due to back pain and fingertip pain, they were unable to make household work, and it was painful for them to hold even a light object by hand. They had pain at 15 points among the 18 tender points of the whole body, and was diagnosed with fibromyalgia. […] They had to stay in bed all day long, and such a condition lasted for the long term."}, "[4]": {"test_system": "Fibromyalgia", "test": "Case 16: fibromyalgia (2) patient", "settings": "before Cephadol", "text": "[…] There were persistent systemic malaise, lassitude, depressed mood, sleeplessness, neck stiffness and systemic pain. Their score of depression on Hamilton D scale was 25 to 28. No hematological abnormality was detected. As a result of overall judgment based on examinations including a tender point examination, they were diagnosed as having fibromyalgia. They were unresponsive to tricyclic or tetracyclic antidepressants, SSRIs, SNRIs, and Moclobemide. Then, they continued the treatment with 60 mg/day fluoxetine. […] It was concluded that the onset of their depression was due to the systemic pain, and the depression was improved by the drastic improvement of the systemic pain."}, "[5]": {"test_system": "depression", "test": "Case 9: depressed symptoms patient, HAMD", "settings": "40 mg, before Cephadol", "text": "For evaluation of the state of depression, for example, Hamilton's rating scale for depression (HAMD) is available. The HAMD was developed by Max Hamilton in 1960 for the purpose of measuring the severity of a patient diagnosed with depression (Hamilton, M., Journal of Neurology, Neurosurgery & Psychiatry, 23-56-62 (1960) and Hamilton, M., “Development of rating scale for primary depressive illness”, British Journal of Social and Clinical Psychology, 6: 278-296 (1967)). In view of its high usefulness, it is a representative scale of evaluation for depression, widely used in clinical researches and practices. The 17 item version is used for clinical trials of antidepressants in Japan, whereas the 21 item version and the 24 item version are used in Europe or other countries.\nWhen the severity is calculated using Hamilton's rating scale for depression (HAMD), each item is evaluated with three grades of 0-2, or five grades of 0-4. For example, the case is diagnosed as severe where the point is 20 or higher and, as the point decreases, the symptom is diagnosed as being improved.\nCase 9: Depressed Symptoms\nAdministration to the patient of 75 mg/day Cephadol® reduced the HAMD score from 20 points to 7 points after 3 days."}, "[6]": {"test_system": "Bulimia", "test": "Case 8: bulimia (2) patient", "settings": "40 mg", "text": "Patient was a person, who had been suffering from bulimia. The bulimia persisted even after their marriage and childbearing."}, "[7]": {"test_system": "Fibromyalgia", "test": "Case 15: fibromyalgia (1) patient", "settings": "maximum doses, three years, before Cephadol", "protocol": "They then visited the inventor's clinic. When the inventor started the treatment with 75 mg/day Cephadol®, systemic pain of the patient was improved in two days. […] As a result, they became able to perform usual household work, go outside, and further make a trip."}, "[8]": {"test_system": "Alzheimer-Type Dementia", "test": "Case 4: Alzheimer-type dementia patient", "text": "Case 4: Alzheimer-Type Dementia"}}, "note": "Where a name gives a salt, the structure may show the parent alone."}
{"smiles": "N#CN", "note": "[Cyanamide]", "values": [{"measurement": "efficacy of earlier drugs on alcoholism", "setting": "[1]", "value": "without any efficacy"}]}
{"smiles": "O=C([O-])[O-].[Li+].[Li+]", "note": "[Limas®]", "values": [{"measurement": "efficacy on manic state", "setting": "[2]", "value": "ineffective"}]}
{"smiles": "CCN(CC)C(=O)C1(c2ccccc2)CC1CN", "note": "(stereo not shown) [Milnaciplan]", "values": [{"measurement": "back pain", "setting": "[3]", "value": "rather deteriorated their back pain"}]}
{"smiles": "O=C(NCCN1CCOCC1)c1ccc(Cl)cc1", "note": "[Moclobemide]", "values": [{"measurement": "response to earlier drugs", "setting": "[4]", "value": "unresponsive"}]}
{"smiles": "Fc1ccc([C@@H]2CCNC[C@H]2COc2ccc3c(c2)OCO3)cc1", "note": "[Paxil®, paroxetine]", "values": [{"measurement": "depression", "setting": "[5]", "value": "without any improvement"}]}
{"smiles": "CNCCC(Oc1ccc(C(F)(F)F)cc1)c1ccccc1.Cl", "note": "(stereo not shown) [Prozac®]", "values": [{"measurement": "bulimia", "setting": "[6]; before Cephadol", "value": "slightly improved the bulimia"}, {"measurement": "frequency of overeating and emesis", "setting": "[6]; previously two to three times a day", "value": "reduced to once daily"}]}
{"smiles": "CN(C)CCC=C1c2ccccc2CCc2ccccc21", "note": "[Triptanol]", "values": [{"measurement": "response of fibromyalgia to earlier medicines", "setting": "[7]", "value": "without any improvement"}]}
{"smiles": "COc1cc2c(cc1OC)C(=O)C(CC1CCN(Cc3ccccc3)CC1)C2", "note": "(stereo not shown) [donepezil hydrochloride]", "values": [{"measurement": "dementia", "setting": "[8]; donepezil hydrochloride together with 50 mg Cephadol before sleeping", "value": "significant improvement of the dementia"}, {"measurement": "side effect that made treatment difficult", "setting": "[8]; donepezil hydrochloride without Cephadol", "value": "excitatory side effect"}]}
